Values of other authors as cited in patent publication US7279573B2, “Amide derivatives” (Kaken Pharmaceutical Co., Ltd., priority 1997, dated 2007).

Columns and labels:
growth hormone releasing = settings: control compounds for pharmacophore development
[1] = human, in vivo

oral bioavailability [1] [%]	Compound	growth hormone releasing activity (active/inactive) (growth hormone releasing)
	CC(C)(N)CC(=O)N[C@H]1CCc2ccccc2N(Cc2ccc(-c3ccccc3-c3nn[nH]n3)cc2)C1=O [L-692,428]	inactive
0.3	GHRP-6	
